Experimental findings from patent publication US12059425B2, “Heterocyclic compounds and uses thereof” (Kumquat Biosciences Inc., priority 2022, dated 2024) are described below.

The structures appear in SMILES notation. pIC50: −log10 of the molar value. Where only a bound is given, the exact number is not on record here.

The target in test [1] is T1, K-Ras G12V (Homo sapiens, UniProt P01116, G12V).
T1 construct: made in house; host or cells: E. coli, e.g. BL21 (DE3)
As to the kind of experiment: PPI-HTRF assay, K-Ras G12V / SOS1 interaction. The test is classed as biochemical. The settings on record: HTRF, K-Ras G12V; read-out: PPI-HTRF-5 nM (K-Ras G12V IC50). In outline:
(§1)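 Disruption of K-Ras–SOS1 binding is followed by FRET between a europium-labelled anti-GST antibody on GST-K-Ras and an XL665-labelled anti-His antibody on His-hSOS1. Protein concentrations are set in the same molar range as the IC50s measured. The 665/620 nm ratio gives IC50, with duplicates tested at 10, 2.5, 0.63, 0.16, 0.04 and 0.01 μM.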
On the technique in general: Time-resolved FRET reads energy transfer from a long-lived donor to a nearby acceptor.

The subject of test [2] is SW620 cells. As to the kind of experiment: Ras cellular assay, cell proliferation SW620. The settings on record: Homo sapiens, SW-620. The class given is cell-based. The text has this: (§2) For example, this assay can be also used to assess selective growth inhibition of a mutant Ras protein relative to a wildtype, or relative to a different mutant Ras protein.
Test [3] concerns the target T2, K-Ras G12S (Homo sapiens, UniProt P01116, G12S).
T2 construct: made in house; host or cells: E. coli, e.g. BL21 (DE3)
As to the kind of experiment: PPI-HTRF assay, K-Ras G12S / SOS1 interaction. The test is classed as biochemical. Particulars: read-out: PPI-HTRF-5 nM (K-Ras G12S IC50). In outline: as §1

For test [4], the target named is T3, wildtype K-Ras (Homo sapiens, UniProt P01116).
T3 construct: made in house; host or cells: E. coli, e.g. BL21 (DE3)
As to the kind of experiment: PPI-HTRF assay, wildtype K-Ras / SOS1 interaction. The class given is biochemical. Particulars: HTRF, K-Ras wt; read-out: PPI-HTRF-5 nM (K-Ras wt IC50). In outline:
as §1

Test [5] deals with A549 cells. Description: Ras cellular assay, cell proliferation A549. The class given is cell-based. The settings on record: Homo sapiens. As for the experimental part: as §2
A549 (ATCC CRL-185) and LS123 (ATCC CRL-255) cell lines comprise a G12S mutation and can be used to assess Ras cellular signaling in vitro, e.g., in response to treatment with a compound described herein. A549 culture medium is prepared with RPMI-1640 and 10% heat-inactivated FBS. LS123 culture medium is prepared with RPMI-1640 and 10% heat-inactivated FBS. A CellTiter-Glo (CTG) luminescent based assay (Promega) is used to assess growth of the cells, as a measurement of the ability of the compounds herein to inhibit Ras signaling in the cells. The cells (e.g., 800 per well) are seeded in their respective culture medium in standard tissue culture-treated 384-well format plates (Falcon #08-772-116) or ultra-low attachment surface 384-well format plates (S-Bio #MS-9384WZ). The day after plating, cells are treated with a dilution series (e.g., a 10 point, 3-fold dilution series) of the compounds herein (e.g., approximately 40 μL final volume per well). Cell viability can be monitored (e.g., approximately 6 days later) according to the manufacturer's recommended instructions, where CellTiter-Glo reagent is added (e.g., approximately 10 μL), vigorously mixed, covered, and placed on a plate shaker (e.g., approximately for 20 min) to ensure sufficient cell lysis prior to assessment of luminescent signal. The IC50 values are determined using the four parameter fit. The resulting IC50 value is a measurement of the ability of the test compound to reduce cell growth of Ras-driven cells (e.g., tumor cell lines) in vitro and/or in vivo.

The target of test [6] is T4, K-Ras G12D (Homo sapiens, UniProt P01116, G12D).
T4 construct: made in house; host or cells: E. coli, e.g. BL21 (DE3)
As to the kind of experiment: PPI-HTRF assay, K-Ras G12D / SOS1 interaction. The class given is biochemical. Particulars: HTRF, K-Ras G12D; read-out: PPI-HTRF-5 nM (K-Ras G12D IC50). In outline:
as §1

The subject of test [7] is GP2D cells. As to the kind of experiment: Ras cellular assay, cell proliferation GP2D. The test is classed as cell-based. As for the experimental part: as §2
ASPC-1 (ATCC CRL-1682), Panc-10.05 (ATCC CRL-2547), A427, GP2d cell lines or any other cell lines comprising a G12D mutation can be used to assess Ras cellular signaling in vitro, e.g., in response to a compound described herein. For example, ASPC-1 culture medium is prepared with RPMI-1640 and 10% heat-inactivated FBS. Panc-10.05 culture medium is prepared with RPMI-1640, 10 Units/mL human recombinant insulin, and 10% FBS. A427 cell culture is prepared with RPMI-1640 and 10% heat-inactivated FBS. A CellTiter-Glo (CTG) luminescent based assay (Promega) is used to assess growth of the cells, as a measurement of the ability of the compounds herein to inhibit Ras signaling in the cells. The cells (e.g., 800 per well) are seeded in their respective culture medium in standard tissue culture-treated 384-well format plates (Falcon #08-772-116) or ultra-low attachment surface 384-well format plates (S-Bio #MS-9384UZ). The day after plating, cells are treated with a dilution series (e.g., a 9 point 3-fold dilution series) of the compounds herein (e.g., approximately 40 μL final volume per well). Cell viability can be monitored (e.g., approximately 5 days later) according to the manufacturer's recommended instructions, where the CellTiter-Glo reagent is added (e.g., approximately 10 μL), vigorously mixed, covered, and placed on a plate shaker (e.g., approximately for 20 min) to ensure sufficient cell lysis prior to assessment of luminescent signal. The IC50 values are determined using the four parameter fit. The resulting IC50 value is a measurement of the ability of the test compound to reduce cell growth of Ras-driven cells (e.g., tumor cell lines) in vitro and/or in vivo.

T2 sequence (P01116 1-188 isoform P01116-2 G12S): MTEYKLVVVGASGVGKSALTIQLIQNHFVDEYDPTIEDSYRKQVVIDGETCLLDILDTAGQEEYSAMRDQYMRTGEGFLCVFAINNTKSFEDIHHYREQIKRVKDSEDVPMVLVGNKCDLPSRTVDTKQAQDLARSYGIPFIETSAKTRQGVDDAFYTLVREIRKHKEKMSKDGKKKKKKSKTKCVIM
T4 sequence (P01116 1-188 isoform P01116-2 G12D): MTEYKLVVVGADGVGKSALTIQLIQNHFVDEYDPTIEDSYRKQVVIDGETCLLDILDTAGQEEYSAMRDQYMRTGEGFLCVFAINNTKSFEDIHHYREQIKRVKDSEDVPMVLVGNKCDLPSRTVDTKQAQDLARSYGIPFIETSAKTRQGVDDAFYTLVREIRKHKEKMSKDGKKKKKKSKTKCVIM
T3 sequence (P01116 1-188 isoform P01116-2): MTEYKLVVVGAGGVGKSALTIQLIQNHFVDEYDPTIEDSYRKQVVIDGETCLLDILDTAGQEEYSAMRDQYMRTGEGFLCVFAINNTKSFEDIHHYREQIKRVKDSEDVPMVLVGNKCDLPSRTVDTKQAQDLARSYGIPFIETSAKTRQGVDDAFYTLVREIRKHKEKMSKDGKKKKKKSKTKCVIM
T1 sequence (P01116 1-188 isoform P01116-2 G12V): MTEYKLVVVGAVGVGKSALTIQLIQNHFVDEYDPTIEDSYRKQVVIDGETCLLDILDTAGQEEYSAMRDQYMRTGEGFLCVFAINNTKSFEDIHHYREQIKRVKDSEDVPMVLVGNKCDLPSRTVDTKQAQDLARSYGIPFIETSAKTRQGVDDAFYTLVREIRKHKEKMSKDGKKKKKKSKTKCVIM

As usually defined, the pIC50 is −log10 of the IC50, conventionally taken in molar units. `N#Cc1c(N)sc2c(F)ccc(-c3c(Cl)c4c5c(nc(OCC67CCCN6C[C@H](F)C7)nc5c3F)N3CCCCC3CCO4)c12` (single isomer, unassigned) [compound 117]: the pIC50 in test [1], in test [2], in test [3], in test [4] and in test [5] was above 5.30 throughout.

Consider `N#Cc1c(N)sc2c(F)ccc(-c3c(Cl)c4c5c(nc(OC[C@@]67CCCN6C[C@H](F)C7)nc5c3F)N3CC5(CCN5C(=O)n5cncn5)CC3CO4)c12` (stereo partly drawn) [compound 131, 2-Amino-4-(10′-chloro-8′-fluoro-6′-(((2R,7aS)-2-fluorotetrahydro-1H-pyrrolizin-7a(5H)-yl)methoxy)-1-(1H-1,2,4-triazole-1-carbonyl)-12′,12a′-dihydro-1′H,3′H-spiro[azetidine-2,2′-pyrrolo[2′,1′:3,4][1,4]oxazepino[5,6,7-de]quinazolin]-9′-yl)-7-fluorobenzo[b]thiophene-3-carbonitrile], for which the pIC50 in test [1], in test [2], in test [3], in test [4] and in test [5] was above 5.30 in each case.

In the case of `CN(C)CCCN1c2nc(OC[C@@]34CCCN3C[C@H](F)C4)nc3c(F)c(-c4ccc(F)c5sc(N)c(C#N)c45)c(Cl)c(c23)OCC2COCC21` (stereo partly drawn) [compound 209, 2-amino-4-(6-chloro-12-(3-(dimethylamino)propyl)-4-fluoro-2-(((2R,7aS)-2-fluorotetrahydro-1H-pyrrolizin-7a(5H)-yl)methoxy)-8a,9,11a,12-tetrahydro-8H,11H-furo[3′,4′:6,7][1,5]oxazocino[4,3,2-de]quinazolin-5-yl)-7-fluorobenzo[b]thiophene-3-carbonitrile], the pIC50 in test [1], in test [2], in test [6], in test [3], in test [4] and in test [7] was above 5.30 in each case.

For `CN1c2nc(OC[C@@]34CCCN3C[C@H](F)C4)nc3c(F)c(-c4ccc(F)c5sc(N)c(C#N)c45)c(Cl)c(c23)OCC2CCC21` (stereo partly drawn) [compound 187, 2-amino-4-(6-chloro-4-fluoro-2-(((2R,7aS)-2-fluorotetrahydro-1H-pyrrolizin-7a(5H)-yl)methoxy)-11-methyl-8,8a,9,10,10a,11-hexahydrocyclobuta[6,7][1,5]oxazocino [4,3,2-de]quinazolin-5-yl)-7-fluorobenzo[b]thiophene-3-carbonitrile], the pIC50 in test [1], in test [2], in test [6], in test [3], in test [4] and in test [7] was above 5.30 throughout.

With `CN1CC2COCC2Oc2c(Cl)c(-c3ccc(F)c4sc(N)c(C#N)c34)c(F)c3nc(OC[C@@]45CCCN4C[C@H](F)C5)nc1c23` (stereo partly drawn) [compound 113, 2-amino-4-(1-chloro-3-fluoro-5-(((2R,7aS)-2-fluorotetrahydro-1H-pyrrolizin-7a(5H)-yl)methoxy)-7-methyl-7,8,8a,9,11,11a-hexahydrofuro[3′,4′:7,8][1,5]oxazocino[4,3,2-de]quinazolin-2-yl)-7-fluorobenzo[b]thiophene-3-carbonitrile], the pIC50 in test [1], in test [2], in test [6], in test [3], in test [4] and in test [7] was above 5.30 throughout.

As for `CC1Oc2c(Cl)c(-c3ccc(F)c4sc(N)c(C#N)c34)c(F)c3nc(OC[C@@]45CCCN4C[C@H](F)C5)nc(c23)N(C)C2COCC12` (stereo partly shown) [compound 104], the pIC50 in test [1], in test [2], in test [6], in test [3], in test [4] and in test [7] was above 5.30 in each case.

In the case of `N#Cc1c(N)sc2c(F)ccc(-c3c(Cl)c4c5c(nc(OC[C@@]67CCCN6C[C@H](F)C7)nc5c3F)NC3COCC3CO4)c12` (stereo partly drawn) [compound 208, 2-amino-4-(6-chloro-4-fluoro-2-(((2R,7aS)-2-fluorotetrahydro-1H-pyrrolizin-7a(5H)-yl)methoxy)-8a,9,11a,12-tetrahydro-8H,11H-furo[3′,4′:6,7][1,5]oxazocino[4,3,2-de]quinazolin-5-yl)-7-fluorobenzo[b]thiophene-3-carbonitrile], the pIC50 in test [1], in test [2], in test [6], in test [3], in test [4] and in test [7] was above 5.30 in each case.

Consider `CNC1CCN2c3nc(OC[C@@]45CCCN4C[C@H](F)C5)nc4c(F)c(-c5ccc(F)c6sc(N)c(C#N)c56)c(Cl)c(c34)OCCC2C1` (stereo partly drawn) [compound 158, 2-amino-4-(3-chloro-1-fluoro-13-(((2R,7aS)-2-fluorotetrahydro-1H-pyrrolizin-7a(5H)-yl)methoxy)-8-(methylamino)-6,6a,7,8,9,10-hexahydro-5H-pyrido[11,2′:5,6][1,5]oxazocino[4,3,2-de]quinazolin-2-yl)-7-fluorobenzo[b]thiophene-3-carbonitrile], for which the pIC50 was above 5.30 in test [1]; above 5.30 in test [2]; above 5.30 in test [6]; above 5.30 in test [3]; above 5.30 in test [4]; below 5.30 in test [7].

On to `N#Cc1c(N)sc2c(F)ccc(-c3c(Cl)c4c5c(nc(OC[C@@]67CCCN6C[C@H](F)C7)nc5c3F)N3CC(N)CCC3CCO4)c12` (stereo partly drawn) [compound 129, 2-amino-4-(9-amino-3-chloro-1-fluoro-13-(((2R,7aS)-2-fluorotetrahydro-1H-pyrrolizin-7a(5H)-yl)methoxy)-6,6a,7,8,9,10-hexahydro-5H-pyrido[1′,2′:5,6][1,5]oxazocino[4,3,2-de]quinazolin-2-yl)-7-fluorobenzo[b]thiophene-3-carbonitrile], for which the pIC50 is above 5.30 in test [1]; below 5.30 in test [2]; above 5.30 in test [6]; above 5.30 in test [3]; above 5.30 in test [4]; above 5.30 in test [7].

With `N#CCCN1c2nc(OC[C@@]34CCCN3C[C@H](F)C4)nc3c(F)c(-c4ccc(F)c5sc(N)c(C#N)c45)c(Cl)c(c23)OCC2COCC21` (stereo partly drawn) [compound 197, 2-amino-4-(6-chloro-12-(2-cyanoethyl)-4-fluoro-2-(((2R,7aS)-2-fluorotetrahydro-1H-pyrrolizin-7a(5H)-yl)methoxy)-8a,9,11a,12-tetrahydro-8H,11H-furo[3′,4′:6,7][1,5]oxazocino[4,3,2-de]quinazolin-5-yl)-7-fluorobenzo[b]thiophene-3-carbonitrile], the pIC50 in test [1], in test [2], in test [6], in test [3], in test [4] and in test [7] was above 5.30 each time.
